In patent publication US20140066434A1, “Methods and Compositions for Treating Parkinson's Disease” (ARIAD PHARMACEUTICALS, INC., priority 2011, published 2014):

Test: Phase 1 clinical trial, safety

Q: For `Cc1ccc(C(=O)Nc2ccc(CN3CCN(C)CC3)c(C(F)(F)F)c2)cc1C#Cc1cnc2cccnn12` [ponatinib, 3-(Imidazo[1,2-b]pyridazin-3-ylethynyl)-4-methyl-N-(4-((4-methylpiperazin-1-yl)methyl)-3-(trifluoromethyl)phenyl)benzamide], which DLTs (45 mg cohort) is on record?
A: The DLTs was “a reversible rash was seen with one patient”.

Q: What about the DLTs (60 mg cohort) of the same compound?
A: The DLTs was “four patients developed reversible pancreatic related DLT (pancreatitis)”.

Q: And the DLTs (2 to 30 mg cohorts)?
A: Its DLTs is “No DLTs”.

Q: And the “drug-related adverse events of any grade: anemia” value (phase 1, all cohorts)?
A: Its value is 12%.

Q: What about the “drug-related adverse events of any grade: lipase increase” value (phase 1, all cohorts) of the same compound?
A: The value was 12%.

Q: What about the “drug-related adverse events of any grade: nausea” value (phase 1, all cohorts) of the same compound?
A: The value was 12%.

Q: And the “drug-related adverse events of any grade: rash” value (phase 1, all cohorts)?
A: The value was 12%.

Q: And the “drug-related adverse events of any grade: thrombocytopenia” value (phase 1, all cohorts)?
A: The value was 25%.

Q: And the “maximum tolerated dose (MTD)” value (phase 1, mono-hydrochloride salt)?
A: The value was 45 mg.
